What all share (format): cell-based
The test system of one assay is Jurkat (JM) cells. Put plainly: Annexin V apoptosis assay (AlexaFluor 488-Annexin V, PI) with the claimed apparatus. The settings on record: 3 μM Camptothecin, three hours incubation. Here is the method:
Here the claimed apparatus is used in assay fluorescently labeled Annexin V to stain apoptotic and necrotic cells and PI to distinguish between the early and late apoptotic/necrotic cells. Jurkat (JM) cells were cultivated at 37° C. in a humidified air atmosphere with 5% CO2 in RPMI (Invitrogen, Cat. No. 61870) supplemented with 10% heat-inactivated fetal bovine serum (Invitrogen, Cat. No. 10108-165). 3 μM Camptothecin (Sigma, Cat. No. C-9911) was added to the cells in order to induce apoptosis. After three hours incubation (37° C., 5% CO2) cells were harvested in cold phosphate-buffered saline (PBS) and stained with AlexaFluor 488-labelled Annexin V from the Vybrant® Apoptosis Assay Kit #2 (Molecular probes, V13241) according to the manufacturer's protocol. The stained cells were loaded into a cassette containing propidium iodide. The cassette was placed in the claimed apparatus and the cells were counted and investigated using the claimed apparatus and in-house developed software. The cells were also investigated using an Olympus IX50 fluorescent microscope. Images were captured using a Lumenera CCD camera and in-house developed software. AF488 fluorescence was detected using a U-MWIBA3 (blue bandpass) filter cube (Olympus) and PI fluorescence was detected using a U-MWG2 (green longpass) filter cube (Olympus).

The test system of assay [1] is Jurkat cells. Put plainly: Early apoptosis by mitochondrial membrane potential (JC-1 and DAPI staining). The settings on record: 10 μM campthotecin, 5 hours at 37° C. An excerpt:
Loss of the mitochondrial membrane potential is known to precede apoptosis and chemical-hypoxia-induced necrosis. The lipophilic cationic dye JC-1 (5,5,6,6-tetrachloro-1,1,3,3-tetraethylbenzimidazol-carbocyanine iodide) display potential-dependent accumulation in the mitochondria and provides a simple, fluorescent-based method for distinguishing between healthy and apoptotic cells. In healthy cells, the negative charge established by the intact mitochondrial membrane potential facilitates the accumulation of JC-1 in the mitochondrial matrix. At high concentrations JC-1 forms aggregates and become red fluorescent. In apoptotic cells the mitochondrial potential collapses and JC-1 localizes to the cytosol in its monomeric green fluorescent form. A cell impermeable DNA stain (like DAPI) can be included to stain necrotic and late apoptotic cells. Jurkat cells were grown in RPMI+10% FCS to a density of 5.0×10^5 cells/ml and treated with 10 μM campthotecin (apoptosis inducing drug) for 5 hours. Cells were stained with 2.5 μg/ml JC-1 for 10 minutes at 37° C., washed with PBS, resuspended in PBS+1 μg/ml DAPI and analysed using the claimed apparatus.

For another assay, the system named is CHO cells. Put plainly: Caspase based assay (SR-VAD-FMK poly-caspase FLICA, DACM, SYTOX green). The settings on record: 1 μM nocodazole, 16 hours. The source says:
Another caspase based apoptosis assay is the FLICAssay (Fluorochrome Inhibitor of Caspases Assay). This assay detects active caspases inside the cell using a caspase specific inhibitor sequence linked to a fluorescent probe. The non-cytotoxic caspase specific inhibitor is cell permeant and passes through the intact plasma membrane and covalently binds to the reactive cysteine residue on the large subunit of the active caspase heterodimer. […] Measuring the fluorescence thus gives a direct measure of the amount of active caspase in the whole living cell.
To quantify caspase activity by the FLICAssay, the cells to be investigated are incubated with the chosen caspase specific inhibitor sequence linked to a fluorescent probe. Cells are washed to remove unbound inhibitor and the fluorescence of the cells is determined using the claimed apparatus thereby making measurement of caspase activity on the single cell level possible. […]
CHO cells were cultivated in RPMI (Invitrogen, Cat. No. 61870) supplemented with 10% heat-inactivated fetal bovine serum (Invitrogen, Cat. No. 10108-165) at 37° C. in a humidified air atmosphere with 5% CO2. […] The NC-Slide was placed in the claimed apparatus and the cells were counted and investigated using the claimed apparatus and in-house developed software. […]

Assay [2] has as its system Jurkat cells. Put plainly: Annexin V apoptosis assay (AF594-annexin V, DACM, SYTOX green) with the claimed apparatus. The settings on record: 1 μM nocodazole, 16 hours; for annexin V positive cells (apoptotic cells): viable cells, nonviable cells gated out by SYTOX green. The method, then: Here the claimed apparatus is used in assaying fluorescently labelled annexin V to stain apoptotic and necrotic cells and SYTOX green to distinguish between the early and late apoptotic/necrotic cells. In addition DACM is used to stain all viable cells. Jurkat cells were cultivated at 37° C. in a humidified air atmosphere with 5% CO2 in RPMI (Invitrogen, Cat. No. 61870) supplemented with 10% heat-inactivated fetal bovine serum (Invitrogen, Cat. No. 10108-165). Cells were either treated with 1 μM nocodazole (Sigma, Cat. No. M1404) or left untreated. After 16 hours incubation (37° C., 5% CO2) cells were harvested in cold phosphate-buffered saline (PBS) and stained with AlexaFluor 594-labelled annexin V (Molecular probes, A-13203) according to the manufacturer's protocol. After annexin V staining all viable cells were co-stained using DACM (N-(7-dimethylamino-4-methyl-3-coumarinyl)-maleimide, WAKO Pure Chemical Industries, CAS no. 55145-14-7) and nonviable cells were stained with SYTOX green (Invitrogen, S7020). The stained cells were loaded into a NC-Slide. The NC-Slide was placed in the claimed apparatus and the cells were counted and investigated using the claimed apparatus and in-house developed software. The cells were also investigated using an Olympus IX50 fluorescent microscope. SYTOX green fluorescence was detected using a U-MWIBA3 (blue bandpass) filter cube (Olympus), the annexin V AF594 conjugate was detected using a U-MWG2 (green longpass) filter cube (Olympus) and DACM was detected using the U-MNUA2 (UV band pass) filter cube (Olympus).

Turning to `CC[C@@]1(O)C(=O)OCc2c1cc1n(c2=O)Cc2cc3ccccc3nc2-1` [Camptothecin], in the assay with Jurkat (JM) cells, the “concentration of apoptotic cells (Annexin V conjugate binding cells)” value was 2.6×10^5 and the “concentration of non-viable cells (PI)” value is reported as 4.5×10^4. Also, in the assay on Jurkat cells [1], the “depolarized/apoptotic cells (JC-1)” value was found to be 60% and the “viability (DAPI positive cells counted)” value is on record as “approximately 96%”.

For `COC(=O)Nc1nc2ccc(C(=O)c3cccs3)cc2[nH]1` [nocodazole], in the assay with CHO cells, the “cells exhibiting strong red fluorescence (caspase activity, apoptotic cells) versus untreated cells” value is reported as “Substantially more”. In the assay with Jurkat cells [2], the viability entry is “almost not affected” and the “annexin V positive cells (apoptotic cells)” value is listed as “more than 40%”. The “annexin V positive cells (apoptotic cells)” value in the assay on Jurkat cells [2] (listed as Nocodazole) is recorded as about 40%.
